Experimental data taken from the NIST ThermoML archive (doi:10.1016/j.tca.2009.07.011).
± gives the expanded uncertainty stated by the source.

Legend:
[1] = refractive index (Na D-line) (dimensionless); xn = mol fraction of the nth substance listed; conditions: 298.15 K, 101 kPa, Liquid, Standard Abbe refractometry
[2] = xn = mol fraction of the nth substance listed; conditions: 298.15 K, 101 kPa, Liquid; for viscosity: Capillary tube (Ostwald / Ubbelohde) method; for mass density: Pycnometric method; for speed of sound: ultra sonice interferometer
[3] = refractive index (Na D-line) (dimensionless); conditions: 298.15 K; 101.33 kPa; Liquid; Standard Abbe refractometry
[4] = 298.15 K, 101 kPa, Liquid

`ClCCl` [dichloromethane] + CCCOC(C)=O showed a refractive index ([1]; x1 = 0.546) of 1.397 ± 0.001, a viscosity ([2]; x1 = 0.546) of 0.518 ± 0.007 mPa·s and a mass density ([2]; x1 = 0.546) of 1053.5 ± 0.6 kg/m3. It also gave a speed of sound ([2]; x1 = 0.546) of 1181 ± 1 m/s.
Compound `ClCCl` [dichloromethane] + CCOC(C)=O has a refractive index ([1]; x1 = 0.5092) of 1.388 ± 0.001, a viscosity ([2]; x1 = 0.5092) of 0.456 ± 0.007 mPa·s and a mass density ([2]; x1 = 0.5092) of 1059.2 ± 0.6 kg/m3. The speed of sound ([2]; x1 = 0.5092) was 1059 ± 1 m/s.
In the case of `ClCCl` [dichloromethane] + COC(C)=O, the refractive index ([1]; x1 = 0.4659) is reported as 1.38 ± 0.001, the viscosity ([2]; x1 = 0.4659) is reported as 0.425 ± 0.007 mPa·s and the mass density ([2]; x1 = 0.4659) is reported as 1078 ± 0.6 kg/m3. It also gave a speed of sound ([2]; x1 = 0.4659) of 1056 ± 1 m/s.
In the case of `C1COCO1` [1,3-dioxolane], the refractive index [3] is reported as 1.398 ± 0.001, the viscosity ([4]; Capillary tube (Ostwald / Ubbelohde) method) is reported as 0.588 ± 0.008 mPa·s and the mass density ([4]; Pycnometric method) is reported as 1057 ± 0.6 kg/m3. The speed of sound ([4]; ultra sonice interferometer) was 1339 ± 1 m/s.
For `CC(=O)OCCC(C)C` [3-methylbutyl ethanoate] + ClCCl, the refractive index ([1]; x2 = 0.6052) was 1.406 ± 0.001, the viscosity ([2]; x2 = 0.6052) was 0.633 ± 0.008 mPa·s and the mass density ([2]; x2 = 0.6052) was 1043.3 ± 0.6 kg/m3. For the same compound, the speed of sound ([2]; x2 = 0.6052) was 1115 ± 1 m/s.
`ClCCl` [dichloromethane] + CCCCOC(C)=O gave a refractive index ([1]; x1 = 0.5777) of 1.403 ± 0.001, a viscosity ([2]; x1 = 0.5777) of 0.575 ± 0.008 mPa·s and a mass density ([2]; x1 = 0.5777) of 1049.2 ± 0.6 kg/m3. It also gave a speed of sound ([2]; x1 = 0.5777) of 1181 ± 1 m/s.
